In PMC10655120, “Highly efficient synergistic activity of an α-L-arabinofuranosidase for degradation of arabinoxylan in barley/wheat” (Frontiers in Microbiology, 2023):

Target: T1, TtAbf62 (Thermothelomyces thermophilus, UniProt G2QJQ6)
T1 construct: gene MYCTH_55982; GH62; 321 residues with signal peptide MRPTRPGIVLLATATSVAG (1-19), replaced by alpha-factor signal (strain alpha-ABF); codon-optimized, secreted by Pichia pastoris X-33 (pPICZalphaA); N-glycosylated, 45-60 kDa (35 kDa deglycosylated); no purification described
T1 sequence (G2QJQ6 20-321): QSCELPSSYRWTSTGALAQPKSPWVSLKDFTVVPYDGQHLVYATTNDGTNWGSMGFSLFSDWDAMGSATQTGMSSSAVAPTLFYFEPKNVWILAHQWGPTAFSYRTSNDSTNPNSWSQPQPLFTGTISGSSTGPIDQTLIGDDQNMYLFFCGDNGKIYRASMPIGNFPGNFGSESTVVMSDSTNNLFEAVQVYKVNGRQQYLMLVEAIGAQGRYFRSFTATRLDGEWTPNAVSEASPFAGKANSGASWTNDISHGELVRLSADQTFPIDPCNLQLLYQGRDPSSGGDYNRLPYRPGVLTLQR
Assay: HPLC of released arabinose
Assay type: biochemical
Conditions: 5 mg/mL substrate, 7.7 U/mL secreted enzyme, 50 mM sodium acetate pH 5.0, 60 °C, 1 h

Structure (SMILES)	HPLC of released arabinose
OC[C@@H]1O[C@@H](O[C@H]2[C@H](O[C@@H]3CO[C@@H](O[C@@H]4COC(O)[C@H](O)[C@H]4O)[C@H](O)[C@H]3O)OC[C@@H](O)[C@@H]2O)[C@H](O)[C@H]1O (stereo partly drawn) [A^2XX, 2^3-α-L-arabinofuranosyl-xylotriose]	able to release arabinose from single-arabinofuranosyl arabinoxylo-oligosaccharides substrates (A^3X, A^2XX, and XA^3XX)
OC[C@@H]1O[C@@H](O[C@@H]2[C@@H](O)[C@H](O[C@@H]3COC(O)[C@H](O)[C@H]3O)OC[C@H]2O)[C@H](O)[C@H]1O (stereo partly drawn) [A^3X, 3^2-α-L-arabinofuranosyl-xylobiose]	able to release arabinose from single-arabinofuranosyl arabinoxylo-oligosaccharides substrates (A^3X, A^2XX, and XA^3XX)
